Laboratory results taken from patent publication US20060166316A1, “Phosphodiesterase 10a7 isoforms and methods of use” (Memory Pharmaceuticals Corporation, priority 2003, published 2006).

Key:
mmPDE10A7 [1] = molecular target: T1, mmPDE10A7 (Mus musculus, UniProt Q8CA95, M75I); test: Km determination with [3H]-cAMP/cAMP or [3H]-cGMP/cGMP; type: biochemical; details: substrate of mmPDE10A7; 30 minutes at room temperature, pH 8.0
T1 construct: Full-length mmPDE10A7 cDNA cloned in the pENTR vector was recombined to pDEST™8; made in house; host or cells: Sf9 insect cells (baculovirus, pDEST8 / DH10BAC); used as crude cell lysate supernatant, dialysed for IMAP
T1 sequence (Q8CA95 with tags, fused parts or gaps M75I): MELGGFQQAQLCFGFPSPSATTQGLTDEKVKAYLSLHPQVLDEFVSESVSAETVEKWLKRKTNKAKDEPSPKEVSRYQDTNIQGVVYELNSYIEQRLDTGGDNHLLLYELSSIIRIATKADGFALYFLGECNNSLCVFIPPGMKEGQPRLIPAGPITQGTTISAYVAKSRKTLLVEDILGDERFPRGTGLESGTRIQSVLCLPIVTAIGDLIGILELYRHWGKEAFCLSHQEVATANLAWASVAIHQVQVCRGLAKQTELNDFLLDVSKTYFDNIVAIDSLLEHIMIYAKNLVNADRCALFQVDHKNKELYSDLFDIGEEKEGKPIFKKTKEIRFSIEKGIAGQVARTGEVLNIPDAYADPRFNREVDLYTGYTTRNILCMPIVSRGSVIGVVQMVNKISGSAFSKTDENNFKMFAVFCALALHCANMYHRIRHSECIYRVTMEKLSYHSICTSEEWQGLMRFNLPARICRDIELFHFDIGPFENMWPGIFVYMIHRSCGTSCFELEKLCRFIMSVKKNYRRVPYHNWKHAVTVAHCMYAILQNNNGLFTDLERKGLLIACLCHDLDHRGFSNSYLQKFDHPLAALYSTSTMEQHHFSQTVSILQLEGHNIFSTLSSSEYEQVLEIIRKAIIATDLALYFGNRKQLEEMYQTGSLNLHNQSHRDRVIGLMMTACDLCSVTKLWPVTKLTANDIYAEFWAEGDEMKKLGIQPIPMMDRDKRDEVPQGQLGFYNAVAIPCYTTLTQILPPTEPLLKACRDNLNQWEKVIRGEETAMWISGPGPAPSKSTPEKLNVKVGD
Excerpt: (§1) Full-length mmPDE10A7 cDNA cloned in the pENTR vector was recombined to pDEST™8 by clonase in DH5α competent bacteria (Invitrogen). DH10BAC, the competent bacteria containing baculovirus genome, was then transformed with the pDEST™8-mmPDE10A7. The white colonies were selected in the presence of gentamicin, kanamycin, tetracycline, Bluogal and IPTG and were confirmed by PCR. Log-phase sf9 cells were then transfected with recombinant baculovirus DNA by the method of Cellfectin in a 6-well plate. Forty-eight to seventy-two hours after the transfection, 0.5 ml medium from the transfected cell plate was added into a 175-cm^2 flask containing 2×10^7 sf9 cells for further amplification of the recombinant baculovirus. The sf9 cells were collected 48 hours after infection.
(§2) To prepare the cell lysate, the sf9 cells expressing mmPDE10A7 were resuspended in cell lysis buffer containing Tris/HCl (pH 7.5) 50 mM, NaCl 10 mM, EGTA 5 mM, EDTA (pH 8.0) 1 mM, DTT 1 mM, Protease Inhibitor Cocktail (Roche) 1 tablet per 50 ml buffer. The cell suspension was then homogenized with a Polytron (PT2100) at speed 20 for 20 seconds on ice and centrifuged at 10,000×g for 20 minutes. The supernatant was then collected and stored at −80° C.

mmPDE10A7 [2] = molecular target: T1, mmPDE10A7; test: IMAP fluorescence polarization compound inhibition assay; type: biochemical; details: recombinant mmPDE10A7 in sf9 cell lysate
Excerpt: as §1, §2
Then, the cassette was placed in 1 liter of fresh assay buffer and continued to dialyze for 2 more hours at 4° C. After the second dialysis, the cell lysate was recovered with a clean syringe and stored at −80° C.
An IMAP Assay kit (Molecular Device) was used to assess enzyme properties of mmPDE10A7. […] Both the enzyme and the substrates were diluted in the following assay buffer: Tris/HCl (pH 8.0) 50 mM, MgCl2 5 mM, 2-mercaptoethanol 4 mM, BSA 0.33 mg/ml. After incubation, the reaction was stopped by adding 20 μl of diluted (400-fold) binding reagents and was incubated for an hour at room temperature. Then, the plates were counted in Analyst GT (Molecular Device) for fluorescence polarization. The data were analyzed with SoftMax Pro. The high end (EC80 to EC100) of the linear range was served as the working enzyme concentration for compound inhibition assays.
Then, the reaction was stopped by adding 20 μl of diluted binding reagents and counted in Analyst GT for fluorescence polarization.

[3] = fluorescein labeled cAMP substrate
[4] = fluorescein labeled cGMP substrate

Row | SMILES | Km (mmPDE10A7 [1]) [µM] | IC50 (mmPDE10A7 [2]; [3]) | IC50 (mmPDE10A7 [2]; [4]) | IC50 (mmPDE10A7 [2]; IC50, fluorescein labeled cAMP substrate) [nM] | IC50 (mmPDE10A7 [2]; IC50, fluorescein labeled cGMP substrate) [nM]
1 | Nc1nc2c(ncn2[C@@H]2O[C@@H]3COP(=O)(O)O[C@H]3[C@H]2O)c(=O)[nH]1 [cGMP, cyclic guanosine 5′ monophosphate] | 3.7 | – | – | – | –
2 | CCOC(=O)C1=C[C@]2(CC)CCCN3CCc4c(n1c1ccccc41)[C@@H]32 [vinpocetine] | – | No inhibition | No inhibition | – | –
3 | Cc1[nH]c(=O)c(C#N)cc1-c1ccncc1 [milrinone] | – | No inhibition | No inhibition | – | –
4 | COc1ccc(Cc2nccc3cc(OC)c(OC)cc23)cc1OC [papaverine] | – | – | – | 44 | 22
